Biological target: T1, recombinant human 5-HT5A receptor (Homo sapiens, UniProt P47898)
T1 construct: expressed in transfected cells; host or cells: HEK-EBNA (Human Embryonic Kidney-EBNA) cells, transient cDNA expression; membranes
Experiment: [3H]LSD radioligand binding assay, membranes of HEK-EBNA cells transiently expressing 5-HT5A receptors
Settings: [3H]LSD approx. 1 nM, SPA beads, 120 min at room temperature; Ki from IC50 by the Cheng-Prussoff equation
Description: A [^3H]LSD radioligand binding assay was used to determine the affinity of the compounds for the recombinant human 5-HT5A receptor, in membranes from transiently (cDNA) expressed 5-HT5A receptors in Human Embryonic Kidney-EBNA (HEK-EBNA) cells. Assay buffer consisted of Tris (50 mM) buffer containing 1 mM EGTA, 10 mM MgCl2 (pH 7.4) and 10 μM pargyline. The binding assay was carried out in 96-well-plates in the presence of [^3H]LSD (approximately 1 nM), approximately 2 μg/well of membrane protein, and 0.5 mg of Ysi-poly-1-lysine SPA beads in a final volume of 200 μl of buffer. Non-specific binding was defined using methiothepin 2 μM. Compounds were tested at 10 concentrations. All assays were conducted in duplicate and repeated at least two times. Assay plates were incubated for 120 min at room temperature before centrifugation. Bound ligand was determined using a Packard Topcount scintillation counter. IC50 values were calculated using a non-linear curve fitting program and Ki values calculated using the Cheng-Prussoff equation.

T1 sequence (P47898 whole entry): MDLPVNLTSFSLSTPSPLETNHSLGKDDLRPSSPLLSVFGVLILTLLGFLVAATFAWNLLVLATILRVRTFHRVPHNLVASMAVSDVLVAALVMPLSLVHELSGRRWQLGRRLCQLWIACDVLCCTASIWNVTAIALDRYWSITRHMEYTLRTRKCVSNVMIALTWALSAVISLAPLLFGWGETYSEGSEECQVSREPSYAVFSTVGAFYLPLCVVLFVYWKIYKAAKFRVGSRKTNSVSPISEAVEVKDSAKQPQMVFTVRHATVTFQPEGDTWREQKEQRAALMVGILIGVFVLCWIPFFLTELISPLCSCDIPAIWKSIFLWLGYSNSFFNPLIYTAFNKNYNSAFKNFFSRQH

Row | Ki | Compound
1 | 2 nM | O=S(=O)(Nc1cccc2c1COC(N[C@@H]1CCc3ccccc31)=N2)C1CC1 [Example 8, Cyclopropanesulfonic acid [2-((R)-indan-1-ylamino)-4H-benzo[d][1,3]oxazin-5-yl]-amide]
2 | 57 nM | Clc1cccc2c1COC(N[C@@H]1CCc3ccccc31)=N2 [Example 1, (5-Chloro-4H-benzo[d][1,3]oxazin-2-yl)-(R)-indan-1-yl-amine]
3 | 2 nM | Clc1ccc(Nc2cccc3c2COC(N[C@@H]2CCc4ccccc42)=N3)cc1 [Example 15, N^5-(4-Chloro-phenyl)-N^2—(R)-indan-1-yl-4H-benzo[d][1,3]oxazine-2,5-diamine]
4 | 5 nM | CS(=O)(=O)Nc1cccc2c1COC(N[C@@H]1CCc3ccccc31)=N2 [Example 10, N-[2-((R)-Indan-1-ylamino)-4H-benzo[d][1,3]oxazin-5-yl]-methanesulfonamide]
5 | 169 nM | O=[N+]([O-])c1cccc2c1COC(N[C@@H]1CCc3ccccc31)=N2 [Example 2, (R)-Indan-1-yl-(5-nitro-4H-benzo[d][1,3]oxazin-2-yl)-amine]
6 | 13 nM | c1ccc2c(c1)CC[C@H]2NC1=Nc2cccc(C3CC3)c2CO1 [Example 12, (5-Cyclopropyl-4H-benzo[d][1,3]oxazin-2-yl)-(R)-indan-1-yl-amine]
7 | 10 nM | COc1cccc2c1C(NC1=Nc3cccc(NS(=O)(=O)c4cc(F)cc(F)c4)c3CO1)CO2 (stereo not drawn) [Example 7, 3,5-Difluoro-N-[2-(4-methoxy-2,3-dihydro-benzofuran-3-ylamino)-4H-benzo[d][1,3]oxazin-5-yl]-benzenesulfonamide]
8 | 118 nM | N#Cc1cccc2c1COC(N[C@@H]1CCc3ccccc31)=N2 [Example 11, 2-((R)-Indan-1-ylamino)-4H-benzo[d][1,3]oxazine-5-carbonitrile]
9 | 106 nM | Brc1cccc2c1COC(N[C@@H]1CCc3ccccc31)=N2 [Example 9, (5-Bromo-4H-benzo[d][1,3]oxazin-2-yl)-(R)-indan-1-yl-amine]
10 | 2 nM | O=S(=O)(Nc1cccc2c1COC(N[C@@H]1CCc3ccccc31)=N2)c1cc(F)cc(F)c1 [Example 6, 3,5-Difluoro-N-[2-((R)-indan-1-ylamino)-4H-benzo[d][1,3]oxazin-5-yl]-benzenesulfonamide]
11 | 78 nM | Fc1ccc(-c2cccc3c2COC(N[C@@H]2CCc4ccccc42)=N3)cc1 [Example 13, [5-(4-Fluoro-phenyl)-4H-benzo[d][1,3]oxazin-2-yl]-(R)-indan-1-yl-amine]
12 | 27 nM | COc1cccc2c1C(NC1=Nc3cccc(N)c3CO1)CO2 (stereo not drawn) [Example 4, N^2-(4-Methoxy-2,3-dihydro-benzofuran-3-yl)-4H-benzo[d][1,3]oxazine-2,5-diamine]
13 | 131 nM | O=C(Cc1ccc(Cl)cc1)Nc1cccc2c1COC(N[C@@H]1CCc3ccccc31)=N2 [Example 5, 2-(4-Chloro-phenyl)-N-[2-((R)-indan-1-ylamino)-4H-benzo[d][1,3]oxazin-5-yl]-acetamide]
14 | 3 nM | Nc1cccc2c1COC(N[C@@H]1CCc3ccccc31)=N2 [Example 3, (R)—N^2-Indan-1-yl-4H-benzo[d][1,3]oxazine-2,5-diamine]
15 | 3 nM | Fc1ccc(Nc2cccc3c2COC(N[C@@H]2CCc4ccccc42)=N3)cc1 [Example 14, N^5-(4-Fluoro-phenyl)-N^2—(R)-indan-1-yl-4H-benzo[d][1,3]oxazine-2,5-diamine]

Source: patent US8044047B2, “5-substituted benzoxazines” (Hoffman-La Roche Inc., priority 2008, dated 2011)
